“Also recorded” adds a separate entry of the source. Like-named read-outs stand apart in the source and are kept apart here.

Series [1] deals with human microvascular endothelial cell (HMVEC) migration. In words: Cell migration assay (wounding) on HMVEC. The class given is cell-based. Conditions: for effect of siRNA on growth factor induced endothelial cell migration: 96 hours after transfection, FIG. 7; for HMVEC migration after siRNA transfection: in the absence of added growth factors, vs vehicle control, FIG. 6B.
The test system of a further series is HMVECs. Put plainly: cDNA microarray analysis of HMVECs. Type of series: cell-based, human. Here is the method: Microarray Analyses. HMVECs were grown to 50-70% confluency. Subconfluent rather than confluent HMVEC cultures were studied because they more closely resemble conditions associated with cell migration in vivo, and because this condition is associated with increased EC expression of α7-nAChRs. Heeschen et al. (2002) J. Clin. Invest. 110:527-536. The concentration of the FBS in the media was then reduced to 1% so as to render the endothelial cells quiescent. After 24 hours, nicotine (10^−8M), VEGF (10 ng/ml) or bFGF (10 ng/ml) was added. Total RNA was then harvested at 24 hours. Five separate experiments per condition were processed for cDNA microarray analysis. Fluorescently labeled cDNAs (stimulated HMVECs versus vehicle-treated HMVECs at 24 hours post incubation) were hybridized on cDNA microarrays containing 39711 nonredundant cDNA clones, representing 26,260 unique UniGene clusters (SFGF, Stanford, Calif.). Eisen et al. (1998) Proc Natl Acad Sci USA 95:14863-14868. Scanning of processed microarray slides was performed using a GenePix400A scanner and images analysed with GENEPIX PRO software (Axon Instruments, Foster City, Calif.). Microarray data were stored in the Stanford Microarray Database (Stanford, Calif.). Spots with signal less than 2.5-fold above background were removed in both channels and/or a regression correlation of less than 0.6. Genes with less than 80% evaluable data were excluded and the remaining data was then normalized. The significance of microarrays (SAM) algorithm was used with a one-class design to identify genes differentially expressed by treatment with each stimuli at each timepoint. Tusher et al. (2001) Proc Natl Acad Sci USA. 98:5116-5121. Delta values giving approximately 5% false discovery were chosen. To analyze convergent gene expression profiles, all differentially expressed genes at 24 hours were hierarchically clustered by gene and by array (Cluster software, version 2.11), and the results analysed with Treeview software (version 1.6). Eisen et al. (1998) supra.

Series [2] has as its system thioredoxin activity in human microvascular endothelial cells. In words: Thioredoxin bioassay (colorimetric, DTNB) on HMVEC protein extracts. Type of series: cell-based. Particulars: for thioredoxin activity after siRNA transfection: in the absence of the stimuli, vs vehicle control, FIG. 6A. Here is the method: Thioredoxin Bioassay. Thioredoxin was assayed based upon previously published colorimetric protocols. Wang et al. (2002) J. Biol Chem. 277:26496-26500. The level of thioredoxin activity is assessed at […] via the […] of a colorimetric substrate DTNB (5,5′-dithiobis(2-nitrobenzoic acid)). Protein extracts were obtained by subjecting cells to a lysis buffer (20 mM HEPES (pH 7.9), 300 mM NaCl, 100 mM KCl, 10 mM EDTA, 0.1% Nonidet P-40, PMSF protease inhibitors).
Double-stranded siRNA were transfected into cells (Lipofectamine2000 reagent, Invitrogen). 24 hours after transfection, HMVEC migration experiments were performed, in the presence of vehicle or stimuli. Cell migration and thioredoxin activity were assayed as described above.

The test system of series [3] is human microvascular endothelial cell (HMVECs).
From the text: To further investigate the effects of nAChR-dependent pathways on EC migration, the effect of the nAChR antagonist, hexamethonium, on EC migration induced by nicotine, VEGF and bFGF was studied.
[4] abbreviates: vs vehicle, nicotine 10^−8M to 10^−4M, VEGF or bFGF 1-10 ng/ml, FIG. 1, 2A, 5B.
Where [5] appears, read: HMVEC, 24 h, effect stronger for bFGF than for nicotine or VEGF, FIG. 3B Panel D.
The mark [6] stands for this setting: HMVEC, vs vehicle, nicotine 10^−8M, VEGF 10 ng/ml, bFGF 10 ng/ml, hexamethonium 10^−4M, FIG. 4, 5A.

Take VEGF: in series [1], the “EC (HMVEC) migration, stimulus alone” value is reported as “induced EC migration” and the “concentration of maximal effects on EC migration” value worked out at 10 ng/mL. In the series with HMVECs, the “Fold Change CHRM5 (Cholinergic muscarinic receptor 5)” value came out at 2.0, the “Fold Change CHRNA3 (Nicotinic receptor alpha polypeptide 3)” value worked out at 1.7, the “Fold Change CHRNA10 (Nicotinic receptor alpha polypeptide 10)” value was 2.0 and the “Fold Change CHRNB2 (Nicotinic receptor beta polypeptide 2)” value was determined as 6.9. In the series with HMVECs, the “Fold Change CHRNB3 (Nicotinic receptor beta polypeptide 3)” value was 2.2 and the “expression of the VEGF receptor FLT1” value is “induced activation”. For the same molecule, the “thioredoxin activity, agent alone” value in series [2] is on record as “induced HMVEC thioredoxin activity significantly above vehicle; also recorded: increased”.
As for `CNC1(C)C2CCC(C2)C1(C)C` (stereo not shown) [mecamylamine], the “cell death (cellular toxicity)” value in series [3] is given as “did not induce cell death”.
Regarding “siRNA directed against ARHGEF: Double-stranded siRNA to ARHGEF7: sense GCCUGUGUCUCCCAAAUCAtt (SEQ ID NO: 5), antisense UGAUUUGGGAGACACAGGCtt (SEQ ID NO: 6) (sense GCCUGUGUCUCCCAAAUCATT; antisense UGAUUUGGGAGACACAGGCTT; lower-case overhang letters stated to be dideoxynucleotides, upper case undefined, further chemistry not given here)”, in series [1] (HMVEC), the “effect of siRNA on growth factor induced endothelial cell migration” value (from here on “effect of siRNA”) is listed as “inhibited”.
As for “siRNA directed against P4HA: Double-stranded siRNA to P4HA1: sense GGAUUUGUUGGGCAUCCAGtt (SEQ ID NO: 11), antisense CUGGAUGCCCAACAAAUCCtt (SEQ ID NO: 12) (sense GGAUUUGUUGGGCAUCCAGTT; antisense CUGGAUGCCCAACAAAUCCTT; lower-case overhang letters stated to be dideoxynucleotides, upper case undefined, further chemistry not given here)”, the “effect of siRNA” value in series [1] (HMVEC) was “inhibited”.
Consider “scrambled siRNA: Scrambled (randomly arranged) RNAi GUUGGCCAUUCUACUUCGCTTdtt (SEQ ID NO:17) used as negative control (GUUGGCCAUUCUACUUCGCTTDTT; dTdT overhang, further chemistry not given here)”, for which, in series [1] (HMVEC), the “effect of siRNA” value was “no effect”. The “HMVEC migration after siRNA transfection” value in series [1] is on record as “no effect”. Also, the “thioredoxin activity after siRNA transfection” value in series [2] (HMVEC) is recorded as “no effect”.
Consider “bFGF: human bFGF purchased from R&D Systems; angiogenic growth factor”, for which the “concentration of maximal effects on EC migration” value in series [1] (HMVEC, range 1-10 ng/ml) was found to be 10 ng/mL. In series [1] (setting [4]), the “EC (HMVEC) migration, stimulus alone” value is “induced EC migration”. For the same molecule, the “expression of the VEGF receptor FLT1” value in the series on HMVECs (setting [5]) was “induced activation”. For the same molecule, the “thioredoxin activity, agent alone” value in series [2] (setting [6]) was “less robust (P=0.02 vs. vehicle) but significant increase; also recorded: increased”.
As to “siRNA against TXNIP: Double-stranded siRNA to TXNIP: sense ACAGACUUCGGAGUACCUGtt (SEQ ID NO: 14), antisense CAGGUACUCCGAAGUCUGUtt (SEQ ID NO: 15) (sense ACAGACUUCGGAGUACCUGTT; antisense CAGGUACUCCGAAGUCUGUTT; lower-case overhang letters stated to be dideoxynucleotides, upper case undefined, further chemistry not given here)”, in series [1], the “HMVEC migration after siRNA transfection” value is reported as “strongly stimulated; also recorded: significantly increased”. Also, the “thioredoxin activity after siRNA transfection” value in series [2] (HMVEC) is reported as “significantly stimulated; also recorded: significantly increased”.
Turning to `CN1CCC[C@H]1c1cccnc1` [nicotine, S-3-(1-methyl-2-pyrrolidinyl)pyridine, reference compound], in series [1] (HMVEC, dose range 10^−8M to 10^−4M, FIG. 2A), the “concentration of maximal stimulation of EC migration” value is recorded as 10^−8 M. In addition, the “EC (HMVEC) migration, stimulus alone” value in series [1] (setting [4]) is “greater migratory activity; also recorded: induced human microvascular endothelial cell (HMVEC) migration in a dose-dependent fashion”; in series [1] (vs vehicle, nicotine 10^−8M to 10^−4M, VEGF or bFGF 1-10 ng/ml, FIG. 1, 2A, 5B, listed as Nicotine), “stimulated EC migration in a dose-dependent manner”. In addition, in the series on HMVECs (setting [5]), the “expression of the VEGF receptor FLT1” value is recorded as “induced activation”. For the same molecule, the “thioredoxin activity, agent alone” value in series [2] (setting [6]) is given as “induced HMVEC thioredoxin activity significantly above vehicle; also recorded: increased”; in series [2] (HMVEC, vs vehicle, nicotine 10^−8M, VEGF 10 ng/ml, bFGF 10 ng/ml, hexamethonium 10^−4M, FIG. 4, 5A, listed as Nicotine), “increased”.
Consider “siRNA directed against Rin2: Double-stranded siRNA to Rin2: sense CUGAAACAGGAGAUGGUGCtt (SEQ ID NO: 8), antisense GCACCAUCUCCUGUUUCAGtt (SEQ ID NO: 9) (sense CUGAAACAGGAGAUGGUGCTT; antisense GCACCAUCUCCUGUUUCAGTT; lower-case overhang letters stated to be dideoxynucleotides, upper case undefined, further chemistry not given here)”, for which the “effect of siRNA” value in series [1] (HMVEC) is given as “inhibited”.
With α-bungarotoxin, the “effect on nicotine-induced EC migration” value in series [1] is “abolished”.
On to `C[N+](C)(C)CCCCCC[N+](C)(C)C` [hexamethonium, hexamethonium bromide], for which, in series [1], the “effect on growth factor (VEGF or bFGF)-induced EC migration” value is reported as “significantly attenuated” and the “effect on nicotine-induced EC migration” value is “abrogated; also recorded: abolished”. For the same molecule, in series [2], the “effect on nicotine-, VEGF- or bFGF-induced thioredoxin activity” value is “inhibited” and the “thioredoxin activity, agent alone” value was “no significant effect”. For the same molecule, in series [3] (antagonist alone, MTT assay), the “cell death (cellular toxicity)” value is on record as “did not induce cell death”.

Values taken from patent publication US8236772B2, “Methods of modulating angiogenesis and screening compounds for activity in modulating angiogenesis” (The Board of Trustees of the Leland Stanford Junior …, priority 2005, dated 2012).
